From US5094723A, “Separation of m-xylene from p-xylene or o-xylene by extractive distillation with alcohols” (priority 1991, dated 1992)

Legend:
Assay type in all cases: physicochemical
[1] = Relative volatility, separation of p-xylene from m-xylene, vapor-liquid equilibrium still; settings: for Relative Volatility: vapor-liquid equilibrium still; for effectiveness in bringing m-xylene out as the overhead from p-xylene: alcohols
From the text: The data in Table 5 was obtained in a vapor-liquid equilibrium still.
Twenty grams of m-xylene, 60 grams of p-xylene, 30 grams of cyclododecanol and 15 grams of benzyl alcohol were charged to the vapor-liquid equilibrium still and refluxed for five hours.
Twenty grams of m-xylene, 60 grams of p-xylene, 30 grams of cyclododecanol and 15 grams of diisobutyl carbinol were charged to the vapor-liquid equilibrium still and refluxed for four hours.

[2] = Relative volatility, separation of m-xylene from o-xylene, vapor-liquid equilibrium still; settings: for effectiveness in separation of m-xylene from o-xylene: in words
Procedure: The data in Table 2 was obtained in a vapor-liquid equilibrium still.
Ten grams of m-xylene, 30 grams of o-xylene and 20 grams of cyclododecanol were charged to a vapor-liquid equilibrium still and refluxed for three hours.
Ten grams of m-xylene, 30 grams of o-xylene, 20 grams of cyclododecanol and ten grams of diisobutyl carbinol were charged to the vapor-liquid equilibrium still and refluxed for 14 hours.

[3] = Extractive distillation run in glass perforated plate rectification column, m-xylene from o-xylene; settings: for Relative Volatility: m-xylene from o-xylene, 7.3 theoretical plates, Fenske equation
Procedure: It yielded a relative volatility of 1.31 after one hour and 1.37 after two hours of continuous operation.
225 grams of m-xylene and 75 grams of o-xylene were placed in the stillpot of a glass perforated plate rectification column containing 7.3 theoretical plates, and heated. When refluxing began, an extractive agent comprising cyclododecanol was pumped into the column at a rate of 15 ml/min. The temperature of the extractive agent as it entered the column was 95° C. After establishing the feed rate of the extractive agent, the heat input to the column was adjusted to give a total reflux rate of 40 ml/min. After one hour of operation, overhead and bottoms samples of approximately two ml. were collected and analysed by gas chromatography. The overhead analysis was 95.5% m-xylene, 4.5% o-xylene and the bottoms analysis was 75% m-xylene, 25% o-xylene. Using these compositions in the Fenske equation, with the number of theoretical plates in the column being 7.3, gave an average relative volatility of 1.31 for each theoretical plate. After a total of two hours of continuous operation, samples of overhead and bottoms were again taken and analysed. The overhead analysis was 96.5% m-xylene, 3.5% o-xylene; the bottoms analysis was 73.6% m-xylene, 26.4% o-xylene which is a relative volatility of 1.37.

[4] = p-xylene from m-xylene, in words
[5] = * brings the m-xylene out as overhead (m-xylene to p-xylene)
[6] = m-xylene to o-xylene, effective agents (alone or mixed as labelled), vapor-liquid equilibrium still
[7] = m-xylene from o-xylene, ineffective agents when mixed with cyclododecanol

In the case of `CN(C)C=O` [dimethylformamide], the “enhancement of relative volatility when mixed with cyclododecanol” value (“enhancement of relative volatility” for short) [1, 4] is reported as “enhance the relative volatility”.

With `CCCCCCCCCCCO` [Undecyl alcohol] the “Relative Volatility” value [1, 5] was 1.14, the “effectiveness in bringing m-xylene out as the overhead from p-xylene” value (“effectiveness … from p-xylene” for short) ([1]; in words) was “effective in bringing m-xylene out as the overhead” and the “effectiveness in separation of m-xylene from o-xylene” value (“effectiveness in separation” below) ([2]; alcohols) was “effective”. For the same compound, the “Relative Volatility” value [2, 6] was 1.40.

In the case of `CCCCCCOCCOCCO` [Diethylene glycol hexyl ether], the “Relative Volatility” value [2, 7] is reported as 0.7.

In the case of `CCCCC(CC)COC(C)=O` (stereo not drawn) [2-Ethyl hexyl acetate], the “Relative Volatility” value [2, 7] is reported as 1.22.

In the case of `C[S+](C)[O-]` [dimethylsulfoxide], the “enhancement of relative volatility” value [1, 4] is reported as “enhance the relative volatility”, the “effectiveness in separation” value ([2]; mixed with cyclododecanol) is reported as “effective relative volatilities” and the “effectiveness in separation” value ([2]; used alone) is reported as “relatively ineffective”.

In the case of `O=C(OCc1ccccc1)c1ccccc1` [Benzyl benzoate], the “Relative Volatility” value [2, 7] is reported as 1.0.

For `CC(=O)Oc1ccccc1` [phenyl acetate], the “effectiveness in separation” value ([2]; mixed with cyclododecanol) was “effective relative volatilities” and the “effectiveness in separation” value ([2]; used alone) was “relatively ineffective”.

For `COC(=O)c1ccccc1` [Methyl benzoate], the “Relative Volatility” value [2, 7] was 1.0.

With `OCc1ccccc1` [Benzyl alcohol] the “Relative Volatility” value [1, 5] was 1.19, the “effectiveness … from p-xylene” value ([1]; in words) was “effective in bringing m-xylene out as the overhead” and the “enhancement of relative volatility” value [1, 4] was “enhance the relative volatility”.

With `CCOC(=O)c1ccccc1O` [ethyl salicylate] the “effectiveness in separation” value ([2]; mixed with cyclododecanol) was “effective relative volatilities” and the “effectiveness in separation” value ([2]; used alone) was “relatively ineffective”.

In the case of `O=S1(=O)CCCC1` [sulfolane], the “effectiveness in separation” value ([2]; mixed with cyclododecanol) is reported as “effective relative volatilities” and the “effectiveness in separation” value ([2]; used alone) is reported as “relatively ineffective”.

In the case of `CCCCCCCCCO` [1-Nonanol], the “Relative Volatility” value [1, 5] is reported as 1.14, the “effectiveness … from p-xylene” value ([1]; in words) is reported as “effective in bringing m-xylene out as the overhead” and the “effectiveness in separation” value ([2]; alcohols) is reported as “effective”.

With `CCOC(=O)CC(=O)OCC` [Diethyl malonate] the “Relative Volatility” value [2, 7] was 1.23.

For `COC(=O)c1ccccc1O` [methyl salicylate], the “effectiveness in separation” value ([2]; mixed with cyclododecanol) was “effective relative volatilities” and the “effectiveness in separation” value ([2]; used alone) was “relatively ineffective”.

In the case of `CCCCOCCOC(C)=O` [Ethylene glycol butyl ether acetate], the “enhancement of relative volatility” value [1, 4] is reported as “enhance the relative volatility” and the “Relative Volatility” value [2, 7] is reported as 1.1.

In the case of `OC1CCCCCCCCCCC1` [Cyclododecanol], the “xylene brought out as overhead product” value [1, 4] is reported as “brings out the p-xylene as overhead product”, the “Relative Volatility” value ([1]; p-xylene to m-xylene (no asterisk)) is reported as 1.11 and the “Weight % m-Xylene” value ([3]; bottoms, 1 hour) is reported as 75%. For the same compound, the “Weight % o-Xylene” value ([3]; bottoms, 1 hour) was 25%, the “Weight % m-Xylene” value ([3]; bottoms, 2 hours) was 73.6% and the “Weight % o-Xylene” value ([3]; bottoms, 2 hours) was 26.4%. For the same compound, the “Relative Volatility” value ([3]; 1 hour) was 1.31, the “Relative Volatility” value ([3]; 2 hours) was 1.37 and the “Weight % m-Xylene” value ([3]; overhead, 1 hour) was 95.5%. The “Weight % o-Xylene” value ([3]; overhead, 1 hour) was 4.5%, the “Weight % m-Xylene” value ([3]; overhead, 2 hours) was 96.5% and the “Weight % o-Xylene” value ([3]; overhead, 2 hours) was 3.5%. For the same compound, the “effectiveness in separation” value ([2]; alcohols) was “effective”, the “Relative Volatility” value [2, 6] was 1.37 and the “liquid composition, m-xylene” value ([2]; vapor-liquid equilibrium still) was 23.6%. The “liquid composition, o-xylene” value ([2]; vapor-liquid equilibrium still) was 76.4%, the “vapor composition, m-xylene” value ([2]; vapor-liquid equilibrium still) was 29.8% and the “vapor composition, o-xylene” value ([2]; vapor-liquid equilibrium still) was 70.2%.

For `CCCCOC(=O)CCC` [Butyl butyrate], the “Relative Volatility” value [2] was 1.26.

With `CCCCCCCCCCCCO` [1-Dodecanol] the “Relative Volatility” value [1, 5] was 1.11, the “effectiveness … from p-xylene” value ([1]; in words) was “effective in bringing m-xylene out as the overhead” and the “effectiveness in separation” value ([2]; alcohols) was “effective”. For the same compound, the “Relative Volatility” value [2, 6] was 1.31.

For `CC(C)CCCCCCO` [Isononyl alcohol (EXXON), Isononyl alcohol], the “effectiveness in separation” value ([2]; alcohols) was “effective” and the “Relative Volatility” value [2, 6] was 1.22.

With `CC(C)CCCCCCCO` [Isodecanol] the “effectiveness … from p-xylene” value ([1]; in words) was “effective in bringing m-xylene out as the overhead” and the “effectiveness in separation” value ([2]; alcohols) was “effective”.

In the case of `CCC(=O)c1ccccc1` [Propiophenone], the “enhancement of relative volatility” value [1, 4] is reported as “enhance the relative volatility” and the “Relative Volatility” value [2, 7] is reported as 0.8.

For `CCOCCOCCO` [diethylene glycol ethyl ether], the “effectiveness in separation” value ([2]; mixed with cyclododecanol) was “effective relative volatilities” and the “effectiveness in separation” value ([2]; used alone) was “relatively ineffective”.

In the case of `CC(=O)c1ccccc1` [acetophenone], the “effectiveness in separation” value ([2]; mixed with cyclododecanol) is reported as “effective relative volatilities” and the “effectiveness in separation” value ([2]; used alone) is reported as “relatively ineffective”.

In the case of `CC(C)CCCCCO` [Isooctanol (U.C.), Isooctanol], the “Relative Volatility” value [2, 6] is reported as 1.27.

With `CC(C)CCCCCCCO` [Isodecanol (EXXON), Isodecanol] the “Relative Volatility” value [2, 6] was 1.18.

In the case of `CCCCOCCOCCO` [diethylene glycol butyl ether], the “enhancement of relative volatility” value [1, 4] is reported as “enhance the relative volatility”, the “effectiveness in separation” value ([2]; mixed with cyclododecanol) is reported as “effective relative volatilities” and the “effectiveness in separation” value ([2]; used alone) is reported as “relatively ineffective”.

For `CC1COC(=O)O1` (stereo not drawn) [Propylene carbonate], the “Relative Volatility” value [2, 7] was 1.07.

With `CCCCCCC(C)O` (stereo not drawn) [2-Octanol] the “effectiveness in separation” value ([2]; alcohols) was “effective” and the “Relative Volatility” value [2, 6] was 1.30.

For `Cc1ccccc1[N+](=O)[O-]` [2-Nitrotouene], the “Relative Volatility” value [2, 7] was 1.25.

In the case of `CC(C)CCCCCCCO` [Isodecanol (ASHLAND), Isodecanol], the “Relative Volatility” value [2, 6] is reported as 1.27.

In the case of `CCCCCCCCCCO` [1-Decanol], the “effectiveness … from p-xylene” value ([1]; in words) is reported as “effective in bringing m-xylene out as the overhead” and the “effectiveness in separation” value ([2]; alcohols) is reported as “effective”.

In the case of `CCCCCCCCO` [1-Octanol], the “enhancement of relative volatility” value [1, 4] is reported as “enhance the relative volatility”, the “effectiveness in separation” value ([2]; alcohols) is reported as “effective” and the “Relative Volatility” value [2, 6] is reported as 1.38.

For `OCC1CCCO1` (stereo not drawn) [tetrahydrofurfuryl alcohol], the “enhancement of relative volatility” value [1, 4] was “enhance the relative volatility”.

With `CCCCC(CC)CO` (stereo not drawn) [2-Ethyl-1-hexanol] the “Relative Volatility” value [2, 7] was 1.29.

In the case of `CC(C)CCCCCO` [isooctanol], the “effectiveness in separation” value ([2]; alcohols) is reported as “effective”.

With `CC(C)CC(O)CC(C)C` [Diisobutyl carbinol] the “Relative Volatility” value [1, 5] was 1.23, the “effectiveness … from p-xylene” value ([1]; in words) was “effective in bringing m-xylene out as the overhead” and the “enhancement of relative volatility” value [1, 4] was “enhance the relative volatility”. For the same compound, the “effectiveness in separation” value ([2]; alcohols) was “effective” and the “Relative Volatility” value [2, 6] was 1.27.

In the case of `OCCc1ccccc1` [Phenethyl alcohol], the “enhancement of relative volatility” value [1, 4] is reported as “enhance the relative volatility” and the “Relative Volatility” value [2, 7] is reported as 1.29.
